The results in this text go back to patent US10329317B2, “Quinoline derivative for use in the treatment and prevention of viral infections” (ABIVAX, priority 2015, dated 2019).

For assay [1], the target named is T1, Recombinant human CBC with capped RNA substrate (Homo sapiens, UniProt P52298+Q09161).
T1 construct: made in house
T1 sequence (Q09161 20-790 limits assumed): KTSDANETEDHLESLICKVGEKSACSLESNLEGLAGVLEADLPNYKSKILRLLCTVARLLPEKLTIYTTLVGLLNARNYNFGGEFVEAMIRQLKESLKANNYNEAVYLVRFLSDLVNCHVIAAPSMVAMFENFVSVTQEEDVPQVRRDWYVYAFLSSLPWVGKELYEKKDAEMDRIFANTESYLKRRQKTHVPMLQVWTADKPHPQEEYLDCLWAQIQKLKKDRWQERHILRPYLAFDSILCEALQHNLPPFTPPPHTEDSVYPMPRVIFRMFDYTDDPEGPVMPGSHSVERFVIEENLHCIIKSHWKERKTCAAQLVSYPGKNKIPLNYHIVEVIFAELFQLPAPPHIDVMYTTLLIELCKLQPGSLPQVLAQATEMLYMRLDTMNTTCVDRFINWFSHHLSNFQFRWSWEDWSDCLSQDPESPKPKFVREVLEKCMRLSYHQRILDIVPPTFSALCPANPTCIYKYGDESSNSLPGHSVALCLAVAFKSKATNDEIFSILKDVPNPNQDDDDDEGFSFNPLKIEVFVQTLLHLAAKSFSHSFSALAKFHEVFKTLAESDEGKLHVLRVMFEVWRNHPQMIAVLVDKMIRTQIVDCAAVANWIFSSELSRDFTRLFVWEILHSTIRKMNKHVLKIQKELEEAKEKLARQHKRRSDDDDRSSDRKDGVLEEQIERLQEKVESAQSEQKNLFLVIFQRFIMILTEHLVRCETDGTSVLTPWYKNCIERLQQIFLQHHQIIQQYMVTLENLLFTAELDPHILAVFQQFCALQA
T1 sequence (P52298 1-156): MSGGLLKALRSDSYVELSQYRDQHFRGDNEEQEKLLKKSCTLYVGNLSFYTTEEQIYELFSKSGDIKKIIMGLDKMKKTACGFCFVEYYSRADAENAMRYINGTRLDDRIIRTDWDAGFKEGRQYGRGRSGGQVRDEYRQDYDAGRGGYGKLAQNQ
As to the kind of experiment: Gel-mobility shift assay of CBC binding to capped RNA. As to conditions: Compound 1 5-100 μM, Compound 2 5-50 μM, m7GpppG 12 mM. As to the method: FIG. 1B. […] Recombinant human CBC was incubated with a capped RNA substrate and analyzed by native gel electrophoresis in order to resolve the different RNA and RNA-protein complexes: free RNA (lane 1), and CBC-RNA complexes (lanes 2-10) in the presence of 12 mM of m7GppG (lanes 10) or 5 μM, 10 μM or 50 μM of Compound 2 (lanes 2-5, respectively) and 5 μM, 10 μM, 50 μM or 100 μM of Compound 1 (lanes 6-9, respectively).
Recombinant human CBC was incubated with a capped RNA substrate in the presence of increasing concentrations of compound 1 or compound 2 or a m(7)GpppG cap analogue and analyzed by native gel electrophoresis in order to resolve the different RNA and RNA-protein complexes according to Mazza et al. (Large-scale induced fit recognition of an m(7)GpppG cap analogue by the human nuclear cap-binding complex. EMBO J. 21, 5548-5557 (2002).

In assay [2] the target is T2, CBC complex (CBP20 and CBP80) (Homo sapiens, UniProt P52298+Q09161).
T2 construct: made in house
T2 sequence (Q09161 20-790 limits assumed): T1 sequence (Q09161 20-790 limits assumed)
T2 sequence (P52298 1-156): T1 sequence (P52298 1-156)
Description: UV-induced covalent bridging of purified recombinant CBP20 and CBP80 (SDS-PAGE / Western blot). As to conditions: purified recombinant CBP20 and CBP80, UV light, resolved by SDS-PAGE. It is filed as binding. As to the method: FIG. 1A. Compounds 1 and 2 interact with the CBC complex. Purified recombinant CBP20 and CBP80 proteins were incubated with increasing concentrations of Compound 2 (left panel) or Compound 1 (right panel, Gluc) and treated during 30 min (Compound 1) or 15 min (Compound 2) with UV light. […] Left panel: from left to right, incubation with 0.1 (lane 1), 1 (lane 2), 10 (lane 3) and 50 μM (lane 4) […]. Right panel: from left to right, incubation with 1 (lane 1), 10 (lane 2), 50 (lane 3), 100 μM (lane 4) and 200 μM (lane 5) of Compound 1.
The recombinant CBC complex, comprising CBP20 and CBP80, is prepared according to the protocol which has been described in Worch, R. et al. (Specificity of recognition of mRNA 5′ cap by human nuclear cap-binding complex. RNA 11, 1355-1363 (2005)).
Compound 1 can make covalent binding with purified CBC complex after […] irradiation with UV light at 365 nm.
The same results were obtained with the glucuronidated Compound 1, the more soluble derivative of Compound 2 that is produced as metabolite using human hepatocytes.
In general terms: Immunoblotting shows a protein as a band on a membrane.

As to `FC(F)(F)Oc1ccc(Nc2ccc3cccc(Cl)c3n2)cc1` [Compound 2, 8-chloro-N-(4-(trifluoromethoxy)phenyl)quinolin-2-amine], the “competition of the complex between CBC and capped RNA” value in assay [1] is reported as “no competition”. In addition, the “covalent bridging between CBP20 and CBP80 after UV irradiation” value in assay [2] is “dose-dependent covalent bridging”.

In the case of `Cn1c[n+]([C@@H]2O[C@H](COP(=O)(O)OP(=O)([O-])OP(=O)(O)OC[C@H]3O[C@@H](n4cnc5c(=O)[nH]c(N)nc54)[C@H](O)[C@@H]3O)[C@@H](O)[C@H]2O)c2nc(N)[nH]c(=O)c21` [m^7GpppG, reference compound], the “competition of the complex between CBC and capped RNA” value in assay [1] is listed as “competed”.
